Test: clinical
Details: for Fa at 4 h / Fa at 8 h / Percent absorption: human, in vivo, topical or ocular; for Fa at 4 h / Fa at 8 h: Percent absorption
Method: An experiment was carried out on 7 subjects who were healthy male adults, 25-39 years old and weighing 50-63 kg each, as mentioned hereinbelow.
The plasters and adhesive tapes so attached to the skin sites were peeled 0 hour, 4 hours and 8 hours after the application and then inserted into 15 ml test tubes, respectively, after which the test tubes were each incorporated with 5 ml of acetone, shaken lightly and allowed to stand overnight at room temperature. […] After the distillation-off of an excess of the diazomethane and ether, the residue so methylated was dissolved in 1 ml of a solution of the internal reference substance in acetone and meansured for absorbability and amount absorbed by means of GC-MF under the conditions as shown in Table 10.
The absorbency and amount absorbed were calculated from the following formulae: [formula]

[1] = 1% plaster, […] 1.4 cm, 4 hr, mean ± S.E.
[2] = 1% plaster, […] 1.4 cm, 8 hr, mean ± S.E.
[3] = 3% plaster, […] 1.4 cm, 4 hr, mean ± S.E.
[4] = 3% plaster, […] 1.4 cm, 8 hr, mean ± S.E.

Row | Structure (SMILES) | Amount absorption [1] | Amount absorption [2] | Amount absorption [3] | Amount absorption [4] | Fa at 4 h [1] | Fa at 8 h [2] | Fa at 4 h [3] | Fa at 8 h [4] | Percent absorption (4 h) | Percent absorption (8 h) | Fa at 4 h | Fa at 8 h
1 | COc1ccc2c(c1)c(CC(=O)O)c(C)n2C(=O)c1ccc(Cl)cc1 [Indomethacin] | 2.30 µg | 4.92 ± 1.16 µg | 16.67 µg | 20.21 ± 2.13 µg | 1.27% | 2.71 ± 0.64% | 3.52% | 4.28 ± 0.45% |  |  |  | 
2 | CC(C(=O)O)c1ccc(-c2ccccc2)c(F)c1 (stereo not shown) [Flurbiprofen] | 9.05 µg | 10.70 ± 1.61 µg | 41.19 µg | 49.56 ± 6.92 µg |  |  |  |  | 6.98% | 8.40 ± 1.17% | 5.53% | 6.54 ± 0.99%

Source: patent publication US4455146A, “Novel plasters” (Hisamitsu Pharmaceutical Co., Ltd., priority 1979, dated 1984)
